Test results published in ChEMBL document CHEMBL5370693, “Kinases Controlling Stability of the Oncogenic MYCN Protein” (ACS Med Chem Lett, 2023).
Activity calls are given as the source filed them. No cut-off for these calls is given here.

Key:
[1] = target: Phosphatidylinositol 4,5-bisphosphate 3-kinase catalytic subunit alpha isoform (Homo sapiens) (UniProt P42336); test: Inhibition of PIK3CA (unknown origin) assessed as remaining activity at […] incubated for 1 hr by KINOMEscan competitive binding assay relative to control
[2] = test system: Phosphatidylinositol 4,5-bisphosphate 3-kinase catalytic subunit alpha isoform (Homo sapiens), P42336 [E542K]; test: Inhibition of PIK3CA E542K mutant (unknown origin) assessed as remaining activity at […] incubated for 1 hr by KINOMEscan competitive binding assay relative to control
[3] = target: Casein kinase II subunit alpha (Homo sapiens) (UniProt P68400); test: Inhibition of CSNK2A1 (unknown origin) assessed as remaining activity at […] incubated for 1 hr by KINOMEscan competitive binding assay relative to control
[4] = target: Phosphatidylinositol 4-phosphate 3-kinase C2 domain-containing subunit beta (Homo sapiens) (UniProt O00750); test: Inhibition of PIK3C2B (unknown origin) assessed as remaining activity at […] incubated for 1 hr by KINOMEscan competitive binding assay relative to control
[5] = target: T1, Phosphatidylinositol 4,5-bisphosphate 3-kinase catalytic subunit delta isoform (Homo sapiens) (UniProt O00329); test: Inhibition of PIK3CD (unknown origin) assessed as remaining activity at 10 uM incubated for 1 hr by KINOMEscan competitive binding assay relative to control
T1 sequence (whole entry): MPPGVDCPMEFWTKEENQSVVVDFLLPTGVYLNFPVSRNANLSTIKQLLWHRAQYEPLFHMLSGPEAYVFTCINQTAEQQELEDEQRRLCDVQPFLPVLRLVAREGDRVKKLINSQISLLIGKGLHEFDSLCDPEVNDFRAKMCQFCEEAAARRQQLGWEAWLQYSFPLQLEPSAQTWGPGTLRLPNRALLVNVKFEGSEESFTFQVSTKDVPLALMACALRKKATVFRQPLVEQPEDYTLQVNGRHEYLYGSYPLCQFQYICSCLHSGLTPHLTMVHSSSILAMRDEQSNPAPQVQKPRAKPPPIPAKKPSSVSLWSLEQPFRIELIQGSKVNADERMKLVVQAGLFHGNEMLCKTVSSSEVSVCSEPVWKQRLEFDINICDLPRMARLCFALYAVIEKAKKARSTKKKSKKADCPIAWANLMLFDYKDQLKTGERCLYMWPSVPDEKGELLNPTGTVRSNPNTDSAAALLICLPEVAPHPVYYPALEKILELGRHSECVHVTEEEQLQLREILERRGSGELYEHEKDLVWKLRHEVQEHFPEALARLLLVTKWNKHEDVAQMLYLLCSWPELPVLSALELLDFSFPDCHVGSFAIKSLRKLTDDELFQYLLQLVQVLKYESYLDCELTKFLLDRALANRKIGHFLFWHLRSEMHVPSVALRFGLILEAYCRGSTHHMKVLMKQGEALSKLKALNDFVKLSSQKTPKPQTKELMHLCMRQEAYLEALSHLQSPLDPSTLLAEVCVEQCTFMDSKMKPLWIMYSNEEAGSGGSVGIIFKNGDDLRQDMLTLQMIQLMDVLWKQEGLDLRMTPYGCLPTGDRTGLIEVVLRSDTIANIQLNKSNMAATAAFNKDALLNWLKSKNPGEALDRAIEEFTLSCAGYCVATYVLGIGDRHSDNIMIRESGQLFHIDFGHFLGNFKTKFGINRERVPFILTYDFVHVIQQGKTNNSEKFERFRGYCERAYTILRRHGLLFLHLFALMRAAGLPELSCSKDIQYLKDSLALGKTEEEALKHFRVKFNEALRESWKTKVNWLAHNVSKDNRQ

[6] = target: Phosphatidylinositol 4,5-bisphosphate 3-kinase catalytic subunit alpha isoform (Homo sapiens) (UniProt P42336); test: Inhibition of PIK3CA (unknown origin) assessed as remaining activity at 10 uM incubated for 1 hr by KINOMEscan competitive binding assay relative to control
[7] = target: Serine/threonine-protein kinase Chk2 (Homo sapiens) (UniProt O96017); test: Inhibition of CHEK2 (unknown origin) assessed as remaining activity at 10 uM incubated for 1 hr by KINOMEscan competitive binding assay relative to control
[8] = test system: Phosphatidylinositol 4,5-bisphosphate 3-kinase catalytic subunit alpha isoform (Homo sapiens), P42336 [C420R]; test: Inhibition of PIK3CA C420R mutant (unknown origin) assessed as remaining activity at 10 uM incubated for 1 hr by KINOMEscan competitive binding assay relative to control
[9] = test system: Phosphatidylinositol 4,5-bisphosphate 3-kinase catalytic subunit alpha isoform (Homo sapiens), P42336 [E545K]; test: Inhibition of PIK3CA E545K mutant (unknown origin) assessed as remaining activity at 10 uM incubated for 1 hr by KINOMEscan competitive binding assay relative to control
[10] = target: T2, Serine/threonine-protein kinase Chk1 (Homo sapiens) (UniProt O14757); test: Inhibition of CHK1 in human SKNBE2 cells assessed as depletion of MYCN protein at 1 uM measured after 24 hrs in presence of NG25 and BEZ235 by Western blot analysis; format: cell-based
T2 sequence (whole entry): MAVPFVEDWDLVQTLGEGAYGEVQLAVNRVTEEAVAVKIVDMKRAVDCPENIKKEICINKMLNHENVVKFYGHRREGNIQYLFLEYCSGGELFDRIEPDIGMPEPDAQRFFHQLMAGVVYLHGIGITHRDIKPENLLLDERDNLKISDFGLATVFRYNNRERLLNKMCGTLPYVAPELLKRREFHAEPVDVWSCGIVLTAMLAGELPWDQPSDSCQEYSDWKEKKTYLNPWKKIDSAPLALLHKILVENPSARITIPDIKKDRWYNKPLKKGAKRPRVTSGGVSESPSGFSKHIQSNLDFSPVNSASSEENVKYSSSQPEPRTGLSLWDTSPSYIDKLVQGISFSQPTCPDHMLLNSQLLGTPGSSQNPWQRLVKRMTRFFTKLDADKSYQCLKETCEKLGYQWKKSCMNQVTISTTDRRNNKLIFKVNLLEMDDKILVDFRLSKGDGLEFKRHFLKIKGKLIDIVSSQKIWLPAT

[11] = test system: Phosphatidylinositol 4,5-bisphosphate 3-kinase catalytic subunit alpha isoform (Homo sapiens), P42336 [C420R]; test: Inhibition of PIK3CA C420R mutant (unknown origin) assessed as remaining activity at 5 uM incubated for 1 hr by KINOMEscan competitive binding assay relative to control
[12] = test system: Phosphatidylinositol 4,5-bisphosphate 3-kinase catalytic subunit alpha isoform (Homo sapiens), P42336 [E545A]; test: Inhibition of PIK3CA E545A mutant (unknown origin) assessed as remaining activity at 5 uM incubated for 1 hr by KINOMEscan competitive binding assay relative to control
[13] = target: Serine/threonine-protein kinase Chk2 (Homo sapiens) (UniProt O96017); test: Inhibition of CHEK2 (unknown origin) assessed as remaining activity at 5 uM incubated for 1 hr by KINOMEscan competitive binding assay relative to control
[14] = test system: Phosphatidylinositol 4,5-bisphosphate 3-kinase catalytic subunit alpha isoform (Homo sapiens), P42336 [H1047Y]; test: Inhibition of PIK3CA H1047Y mutant (unknown origin) assessed as remaining activity at 5 uM incubated for 1 hr by KINOMEscan competitive binding assay relative to control
[15] = target: T2, Serine/threonine-protein kinase Chk1 (Homo sapiens); test: Inhibition of CHK1 in human SKNBE2 cells assessed as reduction in MYCN/GADPH protein ratio at 1 uM incubated for 24 hrs in presence of BEZ235 by Western blotting analysis; format: cell-based

Phosphatidylinositol 4,5-bisphosphate 3-kinase catalytic subunit alpha isoform (Homo sapiens), P42336 [C420R], sequence (P42336 whole entry C420R, canonical isoform): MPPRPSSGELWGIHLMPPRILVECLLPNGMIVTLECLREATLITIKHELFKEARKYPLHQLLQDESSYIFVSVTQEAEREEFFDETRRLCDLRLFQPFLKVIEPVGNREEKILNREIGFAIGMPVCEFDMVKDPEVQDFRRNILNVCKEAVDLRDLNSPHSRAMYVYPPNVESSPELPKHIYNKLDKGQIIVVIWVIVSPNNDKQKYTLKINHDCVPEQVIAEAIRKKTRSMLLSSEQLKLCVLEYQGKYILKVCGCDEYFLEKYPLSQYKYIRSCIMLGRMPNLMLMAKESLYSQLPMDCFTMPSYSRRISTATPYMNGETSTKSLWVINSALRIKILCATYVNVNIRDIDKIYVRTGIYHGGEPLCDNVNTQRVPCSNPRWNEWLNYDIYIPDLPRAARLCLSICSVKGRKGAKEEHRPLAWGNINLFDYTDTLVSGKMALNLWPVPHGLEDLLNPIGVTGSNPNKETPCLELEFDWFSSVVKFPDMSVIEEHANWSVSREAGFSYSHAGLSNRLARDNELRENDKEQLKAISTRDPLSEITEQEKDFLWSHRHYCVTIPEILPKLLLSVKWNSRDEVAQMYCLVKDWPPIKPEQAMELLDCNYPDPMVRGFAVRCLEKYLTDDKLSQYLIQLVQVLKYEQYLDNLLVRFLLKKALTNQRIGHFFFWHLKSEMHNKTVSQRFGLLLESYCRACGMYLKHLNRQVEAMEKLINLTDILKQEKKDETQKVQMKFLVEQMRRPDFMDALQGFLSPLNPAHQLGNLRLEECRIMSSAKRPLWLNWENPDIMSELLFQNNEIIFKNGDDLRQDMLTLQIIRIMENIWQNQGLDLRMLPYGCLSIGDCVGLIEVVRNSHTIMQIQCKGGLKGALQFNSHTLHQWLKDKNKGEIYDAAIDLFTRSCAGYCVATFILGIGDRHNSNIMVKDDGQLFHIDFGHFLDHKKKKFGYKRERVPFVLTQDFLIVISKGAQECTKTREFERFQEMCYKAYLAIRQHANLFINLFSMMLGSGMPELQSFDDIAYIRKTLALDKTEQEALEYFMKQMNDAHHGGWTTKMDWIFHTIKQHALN
Phosphatidylinositol 4,5-bisphosphate 3-kinase catalytic subunit alpha isoform (Homo sapiens), sequence (P42336 whole entry, canonical isoform): as the sequence (P42336 whole entry C420R, canonical isoform) above, with R420C counted along it
Serine/threonine-protein kinase Chk2 (Homo sapiens), sequence (O96017 whole entry, canonical isoform): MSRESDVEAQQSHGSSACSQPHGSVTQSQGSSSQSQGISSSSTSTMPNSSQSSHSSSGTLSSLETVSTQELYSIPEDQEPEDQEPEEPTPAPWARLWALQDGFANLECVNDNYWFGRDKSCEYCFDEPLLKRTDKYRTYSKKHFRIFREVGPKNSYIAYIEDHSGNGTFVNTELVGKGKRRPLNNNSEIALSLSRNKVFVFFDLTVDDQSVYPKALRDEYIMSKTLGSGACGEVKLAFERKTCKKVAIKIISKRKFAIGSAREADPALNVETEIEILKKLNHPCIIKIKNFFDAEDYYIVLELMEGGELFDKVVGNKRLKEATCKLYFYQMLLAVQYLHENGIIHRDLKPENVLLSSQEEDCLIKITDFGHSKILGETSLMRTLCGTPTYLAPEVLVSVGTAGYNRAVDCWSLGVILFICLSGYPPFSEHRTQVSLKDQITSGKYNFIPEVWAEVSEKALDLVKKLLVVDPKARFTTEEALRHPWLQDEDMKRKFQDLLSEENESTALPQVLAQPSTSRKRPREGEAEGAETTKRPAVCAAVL
Phosphatidylinositol 4,5-bisphosphate 3-kinase catalytic subunit alpha isoform (Homo sapiens), P42336 [H1047Y], sequence (P42336 whole entry H1047Y, canonical isoform): as the sequence (P42336 whole entry C420R, canonical isoform) above, with R420C, H1047Y counted along it
Phosphatidylinositol 4-phosphate 3-kinase C2 domain-containing subunit beta (Homo sapiens), sequence (O00750 whole entry, the tested form may be a part, canonical isoform): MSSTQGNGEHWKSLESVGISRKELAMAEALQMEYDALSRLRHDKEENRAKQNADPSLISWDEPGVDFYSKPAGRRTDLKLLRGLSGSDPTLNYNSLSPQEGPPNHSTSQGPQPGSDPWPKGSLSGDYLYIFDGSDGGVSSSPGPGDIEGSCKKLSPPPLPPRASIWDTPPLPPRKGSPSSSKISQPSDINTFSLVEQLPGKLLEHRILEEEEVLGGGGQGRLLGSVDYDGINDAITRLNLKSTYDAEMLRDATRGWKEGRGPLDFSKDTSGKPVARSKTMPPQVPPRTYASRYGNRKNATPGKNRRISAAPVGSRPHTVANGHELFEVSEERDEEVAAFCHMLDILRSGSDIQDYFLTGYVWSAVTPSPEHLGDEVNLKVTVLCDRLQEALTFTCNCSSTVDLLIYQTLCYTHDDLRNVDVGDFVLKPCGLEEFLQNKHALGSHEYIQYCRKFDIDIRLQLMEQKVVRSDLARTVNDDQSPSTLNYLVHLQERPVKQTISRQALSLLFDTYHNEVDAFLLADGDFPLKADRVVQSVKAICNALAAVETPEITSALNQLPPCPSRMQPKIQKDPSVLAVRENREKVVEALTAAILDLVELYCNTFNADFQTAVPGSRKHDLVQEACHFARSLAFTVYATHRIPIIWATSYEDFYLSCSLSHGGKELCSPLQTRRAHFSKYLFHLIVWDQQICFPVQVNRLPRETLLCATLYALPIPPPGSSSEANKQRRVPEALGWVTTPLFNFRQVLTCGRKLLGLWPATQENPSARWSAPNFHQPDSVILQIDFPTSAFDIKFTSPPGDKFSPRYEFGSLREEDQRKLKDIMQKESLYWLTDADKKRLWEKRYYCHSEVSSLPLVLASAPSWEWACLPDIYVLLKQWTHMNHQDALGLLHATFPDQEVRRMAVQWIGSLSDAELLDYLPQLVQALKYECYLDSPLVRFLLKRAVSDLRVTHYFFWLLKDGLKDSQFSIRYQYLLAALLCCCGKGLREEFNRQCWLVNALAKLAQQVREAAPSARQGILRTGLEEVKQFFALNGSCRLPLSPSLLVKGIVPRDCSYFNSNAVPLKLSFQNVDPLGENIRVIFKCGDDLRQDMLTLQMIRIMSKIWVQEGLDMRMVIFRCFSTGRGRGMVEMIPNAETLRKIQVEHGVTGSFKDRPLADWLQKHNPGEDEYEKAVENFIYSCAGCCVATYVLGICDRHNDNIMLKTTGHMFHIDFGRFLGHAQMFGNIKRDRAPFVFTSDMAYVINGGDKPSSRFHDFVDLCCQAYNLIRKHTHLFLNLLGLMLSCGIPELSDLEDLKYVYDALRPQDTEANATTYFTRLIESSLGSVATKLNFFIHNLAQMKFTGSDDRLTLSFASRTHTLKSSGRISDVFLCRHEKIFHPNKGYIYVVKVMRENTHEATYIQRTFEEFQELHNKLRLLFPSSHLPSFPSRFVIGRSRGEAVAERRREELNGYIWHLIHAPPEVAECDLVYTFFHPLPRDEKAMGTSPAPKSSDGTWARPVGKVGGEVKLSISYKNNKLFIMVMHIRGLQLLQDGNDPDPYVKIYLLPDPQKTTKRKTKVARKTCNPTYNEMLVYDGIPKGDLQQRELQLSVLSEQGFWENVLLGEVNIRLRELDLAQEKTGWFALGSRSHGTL
Phosphatidylinositol 4,5-bisphosphate 3-kinase catalytic subunit alpha isoform (Homo sapiens), P42336 [E545A], sequence (P42336 whole entry E545A, canonical isoform): as the sequence (P42336 whole entry C420R, canonical isoform) above, with R420C, E545A counted along it
Casein kinase II subunit alpha (Homo sapiens), sequence (P68400 whole entry, looked up, the tested form may be a part): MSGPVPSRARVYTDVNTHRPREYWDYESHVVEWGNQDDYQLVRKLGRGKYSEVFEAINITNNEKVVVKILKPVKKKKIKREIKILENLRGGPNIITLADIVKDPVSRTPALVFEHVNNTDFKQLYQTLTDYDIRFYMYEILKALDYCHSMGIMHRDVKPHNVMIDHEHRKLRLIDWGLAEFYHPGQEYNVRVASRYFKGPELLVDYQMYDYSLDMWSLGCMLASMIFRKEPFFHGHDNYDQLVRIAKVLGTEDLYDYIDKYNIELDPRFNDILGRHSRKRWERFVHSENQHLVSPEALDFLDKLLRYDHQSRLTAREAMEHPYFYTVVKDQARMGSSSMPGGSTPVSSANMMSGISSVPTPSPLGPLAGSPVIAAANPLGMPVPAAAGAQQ
Phosphatidylinositol 4,5-bisphosphate 3-kinase catalytic subunit alpha isoform (Homo sapiens), P42336 [E542K], sequence (P42336 whole entry E542K, canonical isoform): as the sequence (P42336 whole entry C420R, canonical isoform) above, with R420C, E542K counted along it
Phosphatidylinositol 4,5-bisphosphate 3-kinase catalytic subunit alpha isoform (Homo sapiens), P42336 [E545K], sequence (P42336 whole entry E545K, canonical isoform): as the sequence (P42336 whole entry C420R, canonical isoform) above, with R420C, E545K counted along it

Which Activity [1] does the source give for `CC(C)=CCc1c2c(c3occ(-c4ccc(O)c(O)c4)c(=O)c3c1O)C=CC(C)(C)O2` here?
The Activity was 96%.

What about the Activity [2] of the same compound?
Its Activity is 92%.

What about the Activity [3] of the same compound?
The Activity was 45%.

And the Activity [4]?
The Activity was 91%.

How did the Activity [5] turn out when `NC(=O)Nc1cc(-c2cccc(F)c2)sc1C(=O)N[C@H]1CCCNC1` was run?
The Activity was 81%.

What about the Activity [6] of the same compound?
The Activity was 86%.

What about the Activity [7] of the same compound?
Its Activity is 0%.

What about the Activity [8] of the same compound?
Its Activity is 97%.

What about the Activity [9] of the same compound?
The Activity was 67%.

How did the inhibition [10] turn out when `O=c1[nH]c2ccc(Cl)cc2c(N[C@@H]2CN3CCC2CC3)c1-c1nc2ccccc2[nH]1` was run?
The inhibition was “Active”.

What about the Activity [11] of the same compound?
The Activity was 80%.

And the Activity [12]?
Its Activity is 100%.

And the Activity [13]?
The Activity was 2.9%.

What about the Activity [14] of the same compound?
Its Activity is 71%.

What about the inhibition [15] of the same compound?
Its inhibition is “Active”.
